ChEMBL document CHEMBL1765077, “Nonterpenoid C15 acetogenins from Laurencia marilzae” (2011)

Assays:
Assay type in all cases: functional
WiDr = experiment: Antiproliferative activity against human WiDr cells after 48 hrs
SW1573 = experiment: Antiproliferative activity against human SW1573 cells after 48 hrs; conditions: SW1573, 48 h
A2780 = experiment: Antiproliferative activity against human A2780 cells after 48 hrs; conditions: A2780, 48 h
HeLa = experiment: Antiproliferative activity against human HeLa cells after 48 hrs
T47D = experiment: Antiproliferative activity against human T47D cells after 48 hrs
HBL-100 = experiment: Antiproliferative activity against human HBL100 cells after 48 hrs; conditions: HBL-100, 48 h

Measured: GI50

C/C=C/[C@H]1C/C=C\C[C@@H](Cl)[C@@H](C[C@@H](O)C=C=CBr)O1 [MARILZALLENE]
> 10 µg/mL: all assays above

C/C=C/[C@H]1C/C=C\C[C@@H](Cl)[C@@H](C[C@H](C=C=CBr)OC(C)=O)O1
> 10 µg/mL: all assays above

C[C@H]1/C=C/C[C@H](Br)[C@@H]2C[C@@H](Cl)[C@@H](C[C@H](C=C=CBr)O1)O2 [OBTUSALLENE IV]
> 10 µg/mL: all assays above

C[C@@H]1O[C@@H](C=C=CBr)C[C@H]2O[C@@H](C[C@H]2Cl)[C@@H](Br)C[C@H]2O[C@H]12
> 10 µg/mL: all assays above

COC(=O)/C=C\[C@H]1C[C@H]2O[C@@H](C[C@H]2Cl)[C@@H](Br)C[C@H]2O[C@@H]2[C@H](C)O1
> 10 µg/mL: all assays above

C#C/C=C\CC(O)C(Cl)C/C=C\CC(Cl)C(Br)CC (mixture of isomers)
> 10 µg/mL: all assays above
